These results are taken from patent publication US20220202753A1, “METHOD OF DELIVERY OF INTRAVENOUS BACLOFEN” (Allaysis, LLC, priority 2020, published 2022).

Each structure is given as a SMILES string. Read-outs that look alike come from different tables or passages of the source.

The nature of data set [1]: Combined results of the two pilot pharmacokinetic studies (first in human and dose escalation). Format: in vivo. Conditions: for bioavailability: human, plasma. On the procedure:
Two pilot studies were conducted to characterize baclofen pharmacokinetics and safety following intravenous administration and to access absolute bioavailability of IV and oral baclofen. These studies are described in: A Pilot Study Assessing Pharmacokinetics and Tolerability of Oral and Intravenous Baclofen in Healthy Adult Volunteers, Suresh K. Agarwal, Robert L. Kriel, James C. Cloyd, Lisa D. Coles, Lisa A. Scherkenbach, Michael H. Tobin, and Linda E. Krach, Journal of Child Neurology 2014, 30(1) 37-41; and A Randomized Dose Escalation Study of intravenous Baclofen in Healthy Volunteers: Clinical Tolerance and Pharmacokinetics, Schmitz N S, Krach L E, Coles L D, Mishra U, Agarwal S K, Cloyd J C, Kriel R L. PM&R, 2017, Volume 9(8), 743-750, both hereby incorporated by reference as though fully set forth herein. […] In order to meet bioequivalency criteria for both exposure (AUC) and peak concentration (Cmax), it was concluded that infusion times needed to be longer. To that end, modeling and simulation studies were performed to predict IV baclofen dosing regimens that would be bioequivalent to a 20 mg oral dose with respect to both AUC and Cm. These simulations formed the basis for a pivotal bioequivalence study where three different dosing regimens of baclofen IV (15 mg infused over 3 hours: 16 mg infused over 3 hours; and 16 mg infused over 4 hours, respectively) were compared to a single dose of a 20 mg oral tablet. Each of these IV regimens was bioequivalent to the 20 mg oral dosing but the 16 mg/3 hours dosing best met the bioequivalence criteria.
An important goal for adjusting the dose and duration of a baclofen infusion was to achieve bioequivalent systemic exposure (Cmax and AUC) between a single-dose baclofen IV infusion and a 20 mg oral baclofen tablet.

Data set [2] is described as follows: Clinical bioequivalence study of baclofen injection compared to baclofen tablets in healthy adult volunteers. Format: in vivo, human. An excerpt:
This study was designed as a two-part, single-dose bioequivalence study of baclofen injection (test formulation) compared to commercial baclofen tablets (reference product) in healthy adult volunteers under fasted conditions. Part 1 of this study was a single-dose, open-label, four-treatment, randomized, crossover bioequivalence study of baclofen tablets and baclofen injection in healthy adults under fasted conditions. If needed, Part 2 of this study was to be a single-dose, two-way crossover between the most promising infusion of baclofen injection from Part 1 and baclofen tablets.
Subjects were randomized to receive each of 4 treatments in a randomized, crossover fashion: • 15 mg of baclofen injection administered intravenously over 180 minutes • 16 mg of baclofen injection administered intravenously over 180 minutes • 16 mg of baclofen injection administered intravenously over 240 minutes • 20 mg of baclofen tablet administered orally
Each treatment administration was separated by a washout period of at least 3 days. Each dose was administered following a 10-hour overnight fast.
During each study period, 6 mL blood samples were obtained prior to study drug administration and at selected times through 48 hours after drug administration. In the study periods in which subjects received an IV infusion. PK sampling was timed relative to the start of the infusion. Plasma pharmacokinetic samples were analyzed for baclofen using a validated achiral bioanalytical method. Appropriate pharmacokinetic parameters were calculated for each formulation using non compartmental methods.
Treatments A, B, and C: • Treatment A dose:=15 mg of baclofen injection administered intravenously over 180 minutes • Treatment B dose=16 mg of baclofen injection administered intravenously over 180 minutes • Treatment C dose=16 mg of baclofen injection administered intravenously over 240 minutes
Control Product: Treatment D: • Baclofen Tablet, 20 mg, dose:=1×20 mg tablet
Concentration-time data for baclofen were analyzed using noncompartmental methods in Phoenix™ WinNonlin® Version 6.3, Certara L.P.). During the pharmacokinetic analysis, concentrations below the limit of quantitation […] up to the time of the first quantifiable concentration were treated ac zero. Embedded (values between 2 quantifiable concentrations) and/or terminal BLQ concentrations were treated as “missing”. Actual sample times, relative to the time of dose, were used in the pharmacokinetic analysis.
During each baclofen injection treatment period, samples were drawn at 0 hour (predose) and 0.5, 1.0, 1.5, 2.0, 2.5, 3.0, 3.5, 4.0, 4.5, 5.0, 6.0, 7, 8, 10, 12, 18, 24, 30, 36, and 48 hours after starting the infusion.
During the baclofen tablet administration treatment period, samples were drawn at 0 hour (predose) and at 0.25, 0.5, 0.75, 1.0, 1.5, 2.0 3.0, 3.5, 4.0, 5.0, 6.0, 7, 8, 10, 12, 18, 24, 30, 36, and 48 hours after oral administration.

What is called Tmax is the time from dosing to the highest level. As to `NCC(CC(=O)O)c1ccc(Cl)cc1` (centres unmarked) [baclofen, 4-amino-3-[4-chlorophenyl] butanoic acid], the bioavailability is 42 to 132% in data set [1] (oral, 45 subjects, read-out: inter-patient range of % F); 74 to 85% in data set [1] (oral, two pilot studies, 10- to 60-minute IV infusions, healthy volunteers, read-out: estimated mean bioavailability of oral baclofen); 80% in data set [1] (po, 11.5 mg, read-out: mean oral bioavailability); 85% in data set [1] (po, 15 mg, read-out: mean oral bioavailability); about 86% in data set [1] (po, 45 subjects, read-out: mean bioavailability of oral baclofen following a single dose). Also, the “ratio of an IV to an oral dose” value in data set [1] (two prospective studies in healthy volunteers) was 80-85%. Also, the geometric mean ratio vs. Treatment D (20 mg oral tablet) for AUClast in data set [2] (16 mg IV over 180 minutes, 90% CI 89.7-94.6%) came out at 92.1%. In addition, the “geometric mean ratio vs. Treatment D (20 mg oral tablet) for AUCinf” value in data set [2] (16 mg IV over 180 minutes, 90% CI 89.8-94.6%) is recorded as 92.2%. Also, the “geometric mean ratio vs. Treatment D (20 mg oral tablet) for Cmax” value in data set [2] (16 mg IV over 180 minutes, 90% CI 93.7-101.0%) came to 97.3%. In addition, the “median Tmax” value in data set [2] (20 mg oral tablet, fasted) came out at 1.0 h. In data set [2] (IV administered over 180 minutes), the “conversion factor to the oral regimen giving bioequivalent substitution” value was 0.8. Moreover, the “bioequivalence to the 20 mg baclofen oral tablet” value in data set [2] (all three IV infusions: 15 mg over 180 min, 16 mg over 180 min, 16 mg over 240 min) was “bioequivalent”. Besides, in data set [2] (human, plasma, other: intravenous infusions and oral tablet, IV infusions and oral tablet, read-out: mean T1/2), the half-life lay within 5.5 to 5.8 h. Also, the difference in median Tmax (oral tablet earlier than IV infusions) in data set [2] (human, plasma, other: oral tablet versus intravenous infusions, 20 mg oral tablet vs IV infusions) lay in the range of 2 to 3 h. In data set [2] (human, plasma, across IV infusions (15 mg/180 min, 16 mg/180 min, 16 mg/240 min), read-out: median Tmax), the Tmax was 3 to 4 h. The clearance in data set [2] (human, plasma, across IV infusions, read-out: mean total systemic clearance (CLT)) lay within 147 to 148 mL/min. The Vd in data set [2] (human, plasma, across IV infusions, read-out: mean volume of distribution (Vz)) lay in the range of 69.8 to 71.4 L.
